According to PubChem BioAssay (NCI):
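Cultured in 96-well plates, cells were exposed to test compound for 48 hours across five concentrations. Here, GI50 denotes the concentration required for 50% inhibition of growth. The concentration for full growth arrest is given as TGI.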

Columns and labels:
Test in all cases: NCI anticancer screen, dose series, 48 h
NCI-H460 lung = test system: NCI-H460 lung
MALME-3M melanoma = test system: MALME-3M melanoma
HOP-92 NSCLC = test system: HOP-92 NSCLC
SK-MEL-2 melanoma = test system: SK-MEL-2 melanoma
NCI-H522 lung = test system: NCI-H522 lung
OVCAR-4 ovarian = test system: OVCAR-4 ovarian
CCRF-CEM leukemia = test system: CCRF-CEM leukemia
MCF7 breast = test system: MCF7 breast
SK-MEL-5 melanoma = test system: SK-MEL-5 melanoma
RXF 393 renal = test system: RXF 393 renal

SMILES | GI50 (NCI-H460 lung) | TGI (NCI-H460 lung) | GI50 (MALME-3M melanoma) | TGI (MALME-3M melanoma) | GI50 (HOP-92 NSCLC) | TGI (HOP-92 NSCLC) | GI50 (SK-MEL-2 melanoma) | TGI (SK-MEL-2 melanoma) | GI50 (NCI-H522 lung) | TGI (NCI-H522 lung) | GI50 (OVCAR-4 ovarian) | TGI (OVCAR-4 ovarian) | GI50 (CCRF-CEM leukemia) | TGI (CCRF-CEM leukemia) | GI50 (MCF7 breast) | TGI (MCF7 breast) | GI50 (SK-MEL-5 melanoma) | TGI (SK-MEL-5 melanoma) | GI50 (RXF 393 renal) | TGI (RXF 393 renal)
Cc1ccsc1C(NC(=O)c1ccccc1)c1cc(Cl)c2cccnc2c1O (stereo not given) | 341 nM | 2.03 µM | 1100 nM | 13.9 µM | 442 nM | 7.45 µM | 609 nM | 8.75 µM | 271 nM | 2.11 µM | 479 nM | 12.8 µM | 480 nM | 39 µM | 379 nM | 16.2 µM | 583 nM | 5.14 µM | 1770 nM | 6.08 µM
COc1cc2ncnc(Oc3ccc(NC(=O)Nc4ccc(CN5CCOCC5)c(C(F)(F)F)c4)c4ccccc34)c2cc1OC | 1370 nM | 3.64 µM | 302 nM | 1.54 µM | 413 nM | 6.74 µM | 1610 nM | 8.3 µM | 419 nM | 3.25 µM | 124 nM | 8.69 µM | 1180 nM | 40.7 µM | 363 nM | 10.7 µM | 499 nM | 2.34 µM | 692 nM | 5.69 µM
OC(c1cc(C(F)(F)F)nc2c(Cl)cc(Cl)cc12)C1CCCCN1 (stereo not given) | – | > 26.7 µM | – | > 36.9 µM | – | 21.9 µM | – | > 43.8 µM | – | > 21 µM | – | 18.3 µM | – | 4.08 µM | – | > 25.8 µM | – | 22.6 µM | – | 18.8 µM
CC1(C)OCC2OC(n3cnc4c(N)nc(Cl)nc43)C(OS(C)(=O)=O)C2O1 (stereo not given) | – | > 100 µM | – | > 100 µM | – | > 100 µM | – | > 100 µM | – | > 100 µM | – | > 100 µM | – | > 100 µM | – | > 100 µM | – | > 100 µM | – | > 100 µM
COc1cc2[nH]c3c(c2cc1OC)CCN[C@@]31CC[C@@]2(CC3c4c(cc(OC)c(O)c42)CCN3C)C[C@@H]1OC (stereo not given in full) | – | > 100 µM | – | 33.8 µM | – | 69.3 µM | – | 40.6 µM | – | 66.7 µM | – | > 100 µM | – | 94.5 µM | – | > 100 µM | – | 30.3 µM | – | 77.9 µM
Clc1cnc(Nc2ccc(OCCN3CCCC3)cc2)nc1NCc1ccco1 | 2040 nM | 5.36 µM | 2100 nM | 5.79 µM | 1140 nM | 6.6 µM | 1800 nM | 3.48 µM | 1750 nM | 3.96 µM | 2860 nM | 13.9 µM | 2540 nM | 9.5 µM | 1510 nM | 10.2 µM | 1620 nM | 3.42 µM | 1250 nM | 3.24 µM
C=CCc1c(O)c(C(=O)/C=C/c2ccc(Cl)cc2)c(OC)c2ccoc12 | 3200 nM | 12.1 µM | 2740 nM | 8.51 µM | 1690 nM | 5.94 µM | 3970 nM | 14.7 µM | 1880 nM | 5.71 µM | 2770 nM | 13.1 µM | 3330 nM | > 100 µM | 2510 nM | 11.4 µM | 2070 nM | 5.18 µM | 1720 nM | 3.6 µM
CN1C(=O)N(C)C2C1NC(=S)N2/N=C/C=C/c1ccccc1[N+](=O)[O-] (stereo not given) | 701 nM | > 100 µM | > 100000 nM | > 100 µM | 57700 nM | > 100 µM | 587 nM | > 100 µM | 318 nM | 9.65 µM | > 100000 nM | > 100 µM | 822 nM | > 100 µM | 409 nM | > 100 µM | 753 nM | > 100 µM | 2420 nM | > 100 µM
CCN1CCN(C(=O)[C@]23CC[C@@H](C)[C@H](C)[C@@H]2C2=CC[C@@H]4[C@@]5(C)CCC(=O)C(C)(C)[C@@H]5CC[C@@]4(C)[C@]2(C)CC3)CC1 | 930 nM | 1.75 µM | 807 nM | 1.51 µM | 713 nM | 2.06 µM | 1290 nM | 3.33 µM | 831 nM | 1.75 µM | 1260 nM | 4.74 µM | 976 nM | 2.74 µM | 891 nM | 2.03 µM | 888 nM | 1.6 µM | 822 nM | 1.74 µM
COc1cc(OC)c(/C=C/C(=O)c2c(OC)cc(OC)cc2OC)c(OC)c1 | 976 nM | 7.74 µM | 1070 nM | > 100 µM | 534 nM | 6.5 µM | 984 nM | > 21.8 µM | 515 nM | 4.18 µM | 5940 nM | > 100 µM | 876 nM | > 100 µM | 1410 nM | > 100 µM | 818 nM | 11.2 µM | 1300 nM | 4.99 µM
CC1Cc2c(Cl)ncnc2N(C)c2ccccc21 (stereo not given) | 3870 nM | > 100 µM | 2030 nM | 7.5 µM | 2340 nM | 7.17 µM | 2610 nM | 6.1 µM | 1760 nM | 3.7 µM | 3020 nM | > 100 µM | 4530 nM | > 100 µM | 3170 nM | 14.5 µM | 1850 nM | 3.62 µM | 2570 nM | 6.05 µM
COc1c(C(N)=O)cc(-c2ccc(Cl)cc2)cc1-c1ccc(S(N)(=O)=O)cc1 | 11500 nM | > 25 µM | 12700 nM | > 25 µM | 3260 nM | 10.4 µM | 7890 nM | 21 µM | 8110 nM | > 20.8 µM | 10600 nM | > 25 µM | 8530 nM | > 25 µM | 11900 nM | > 25 µM | 7400 nM | > 25 µM | 7880 nM | > 25 µM
